Measurements published in patent publication US12678443B2, “Medicament for preventing and/or treating dry eye” (Santen Pharmaceutical Co., Ltd., priority 2021, dated 2026).

Assays:
[1] = cited from earlier work; for secretion of tears and tear proteins: Patent Literature 1
[2] = tested on: normal male cynomolgus monkeys; assay: Tear film break-up time (TBUT) after single ocular instillation (Tests 1 and 2); format: in vivo, cynomolgus monkey; conditions: for extension of TBUT: single ocular instillation 1% (w/v) ophthalmic solution, FIG. 2
[3] = tested on: dry-eye model SD (Sprague-Dawley) rat; assay: Quantity of tears by Schirmer strip in the exorbital-lacrimal-gland-removed dry-eye model (Tests 3 and 4); format: in vivo; conditions: for Incremental difference in Schirmer's test at 0.5 hours after ocular instillation / Incremental difference in Schirmer's test at 8 hours after ocular instillation: difference from vehicle-instilled group, rat dry-eye model
Protocol: A somnopentyl injection five-fold diluted with physiological saline was intraperitoneally administered to a normal male SD (Sprague-Dawley) rat by 2.5 mL/kg, and the rat was given general anesthesia, followed by keeping the anesthetized state by inhalation of about 1 to 3% isoflurane. Then, the skin on each cheek was incised to remove the exorbital lacrimal gland, followed by suturation with a Michel suture clamp. In this test, an individual wherein reduction of tears was confirmed after 13 weeks from the removal of exorbital lacrimal gland was included as the experimental animal.
Half an hour after treatment of general anesthesia, Schirmer strip (1 mm×17 mm) was inserted to conjunctival sac of the lower eyelid of a rat, and then after 1 minute of the insertion, the wet part of the Schirmer strip was measured in increments of 0.5 mm. (N=14 or 16 eyes)
The quantity of tears was measured in a similar manner to Test 3. (N=10 eyes)

[4] = tested on: normal male cynomolgus monkeys; assay: Intraocular pressure test, twice daily repeated instillation (Test 5); format: in vivo, cynomolgus monkey; conditions: 0.01% and 0.1% ophthalmic solutions, twice daily repeatedly, Day 1, 7, 14; FIG. 4
Protocol: Specifically, one drop of 0.4% oxybuprocaine hydrochloride ophthalmic solution (trade name: Benoxil (registered trademark) ophthalmic solution 0.4%) was instilled to the right eye so as to provide surface anesthesia, and then the intraocular pressure was measured three times with Mentor tonometer (applanation), followed by calculation of the average. (N=6 eyes)

β1 adrenergic receptors = β1 adrenergic receptors (Homo sapiens, UniProt P08588); conditions: cited from earlier work
[5] = 0.001% ophthalmic solution, 8 hours
[6] = 0.01% ophthalmic solution, 8 hours
[7] = 0.1% ophthalmic solution, 8 hours
[8] = 1% ophthalmic solution, 8 hours

β1 adrenergic receptors, sequence (P08588 whole entry): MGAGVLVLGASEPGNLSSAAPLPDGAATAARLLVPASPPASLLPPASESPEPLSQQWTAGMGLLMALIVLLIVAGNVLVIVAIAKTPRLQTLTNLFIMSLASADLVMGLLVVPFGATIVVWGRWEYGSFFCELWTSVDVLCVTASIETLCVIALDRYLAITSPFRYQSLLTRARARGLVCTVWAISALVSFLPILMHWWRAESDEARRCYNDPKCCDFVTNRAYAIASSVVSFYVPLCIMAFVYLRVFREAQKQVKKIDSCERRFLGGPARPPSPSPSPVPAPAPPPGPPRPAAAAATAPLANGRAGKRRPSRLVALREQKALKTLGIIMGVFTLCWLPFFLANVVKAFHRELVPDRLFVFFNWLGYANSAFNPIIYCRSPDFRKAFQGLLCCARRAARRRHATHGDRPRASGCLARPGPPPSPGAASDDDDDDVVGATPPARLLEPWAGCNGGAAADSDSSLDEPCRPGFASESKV

| Structure (SMILES) | secretion of tears and tear proteins [1] | extension of TBUT [2] | Incremental difference in Schirmer's test at 0.5 hours after ocular instillation ([3]; 0.001% ophthalmic solution) | Incremental difference in Schirmer's test at 8 hours after ocular instillation [3, 5] | Incremental difference in Schirmer's test at 0.5 hours after ocular instillation ([3]; 0.01% ophthalmic solution) | Incremental difference in Schirmer's test at 8 hours after ocular instillation [3, 6] | Incremental difference in Schirmer's test at 0.5 hours after ocular instillation ([3]; 0.1% ophthalmic solution) | Incremental difference in Schirmer's test at 8 hours after ocular instillation [3, 7] | Incremental difference in Schirmer's test at 0.5 hours after ocular instillation ([3]; 1% ophthalmic solution) | Incremental difference in Schirmer's test at 8 hours after ocular instillation [3, 8] | also measured |
| --- | --- | --- | --- | --- | --- | --- | --- | --- | --- | --- | --- |
| CC(C)(C)NCC(O)c1ccc(O)c(CO)c1 (stereo not shown) [salbutamol] | – | – | – | – | – | – | – | – | – | – | lacrimal secretion ([1]; Patent Literature 2): confirmed to enhance lacrimal secretion; effects on the treatment of dry eye ([1]; Patent Literature 3): did not have sufficient effects |
| CC(C)(C)NCC(O)c1cc(Cl)c(N)c(Cl)c1 (stereo not shown) [clenbuterol] | confirmed to enhance | not confirmed | 2.0 mm/min | 0.3 mm/min | 2.7 mm/min | 1.1 mm/min | 3.6 mm/min | 2.4 mm/min | 3.0 mm/min | 3.9 mm/min | – |
| CC(Cc1ccc(O)cc1)NCC(O)c1cc(O)cc(O)c1 (stereo not shown) [fenoterol] | confirmed to enhance | not confirmed | 1.8 mm/min | 0.0 mm/min | 4.8 mm/min | 0.2 mm/min | 6.1 mm/min | 0.9 mm/min | 3.6 mm/min | 1.1 mm/min | – |
| COc1ccc(CC(C)(C)NC[C@H](O)c2cc(O)cc3c2OCC(=O)N3)cc1 [olodaterol, 6-hydroxy-8-((1R)-1-hydroxy-2-{[2-(4-methoxyphenyl)-1,1-dimethylethyl]amino}-ethyl)-2H-1,4-benzoxazin-3-(4H)-one] | – | – | 7.2 mm/min | 2.1 mm/min | 6.9 mm/min | 2.8 mm/min | – | – | – | – | intraocular pressure [4]: did not show increase and/or decrease; intrinsic activity against β1 adrenergic receptors (β1 adrenergic receptors): weak intrinsic activity; effect of stabilizing tear film ([2]; low concentration of 0.0001%, FIG. 1): confirmed to show the effect of stabilizing tear film; TBUT-extending effect ([2]; single ocular instillation 0.0001, 0.001, 0.01% (w/v), 20 μL/eye, 15, 30, 60 minutes, FIG. 1): confirmed in a concentration-dependent manner; Incremental difference in Schirmer's test at 0.5 hours after ocular instillation ([3]; 0.00001% ophthalmic solution): 2.8 mm/min; Incremental difference in Schirmer's test at 8 hours after ocular instillation ([3]; 0.00001% ophthalmic solution, 8 hours): 0.4 mm/min; Incremental difference in Schirmer's test at 0.5 hours after ocular instillation ([3]; 0.0001% ophthalmic solution): 6.0 mm/min; Incremental difference in Schirmer's test at 8 hours after ocular instillation ([3]; 0.0001% ophthalmic solution, 8 hours): 1.7 mm/min; lacrimal secretion at 8 hours after ocular instillation ([3]; 0.0001 to 0.01% instilled groups, 8 hours, FIG. 3): highly enhanced; increase of tear volumes at 16 hours after ocular instillation ([3]; 0.001 and 0.01% instilled groups, 16 hours, FIG. 3): increase of tear volumes was observed; lacrimal secretion ([3]; olodaterol-instilled groups 0.00001 to 0.01%, FIG. 3): enhanced |
